Laboratory results reported in patent US5770604A, “Aconitine compound and an antipyretic/analgesic/anti-inflammatory agent” (priority 1994, dated 1998).

Experiments:
[1] = test system: pain threshold (tail-pressure); assay: Tail-pressure method, comparison with morphine (i.v.); type: in vivo, mice (Std:ddY, male); conditions: for Inhibition rate: mean ± standard error
Protocol: (2) Comparison with Morphine
Std:ddY Strain male mice (20-25 g) were fasted for one day before the experiment, and were used. In this experiment, the tartaric acid salt of a compound of number (2) in Table 1 and morphine hydrochloride as a possitive control were used. This tartaric acid salt was dissolved in 0.9% physiological saline solution at the rates of 5 mg/2 ml, 3 mg/2 ml and 1 mg/2 ml. Morphine hydrochloride was dissolved in 0.9% physiological saline solution at the rates of 5 mg/2 ml, 3 mg/2 ml and 1 mg/2 ml. As a negative control, 0.9% phisiological saline solution was used. A tail-pressure apparatus was used in this experiments. Before the administration of test compounds, the pain threshold was measured twice at intervals of 30 minutes and those mice indicating a pain threshold of 50 to 100 mmHg were selected and used. The pain threshold of each mouse was measured at 10, 20 and 30 minutes after test compound solution mentioned above was administered at 2 ml/kg, i.v. 0.9% Physiological saline solution as a control was administered i.v. The results were described as an inhibition rate (%) indicating in the preceding paragraph (1).

[2] = test system: pain threshold (tail-pressure); assay: Tail-pressure method, experiment combined with morphine antagonist (levallorphan); type: in vivo, mice (Std:ddY, male); conditions: 10 mg/kg i.v., mean ± standard error
Protocol: (4) Experiment Combined with Morphine Antagonist
Std:ddY Strain male mice (20-25 g) were fasted for one day before the experiment, and were used. In this experiment, the tartaric acid salt of a compound of number (2) in Table 1, morphine hydrochloride and levallorphan hydrochloride of an opioid antagonist were used. The tartaric acid salt of a compound of number (2) was dissolved in 0.9% physiological saline solution at the rate of 10 mg/2 ml. Morphine hydrochloride was dissolved in 0.9% physiological saline solution at the rate of 10 mg/2 ml. Levallorphan hydrochloride was dissolved in 0.9% physiological saline solution at the rate of 1 mg/10 ml. As a control, 0.9% physiological saline solution was used. A tail-pressure apparatus was used in this experiments. Before the administration of levallorphan hydrochloride, the pain threshold was measured twice at intervals of 30 minutes and those mice indicating a pain threshold of 50 to 100 mmHg were selected and used. Levallorphan hydrochloride solution mentioned above was administered s.c. at the rate of 10 ml/kg and, 30 minutes later, the above tartaric acid salt solution compound of number (2) or morphine hydrochloride solution was injected i.v. at the rate of 2 ml/kg, respectively. Each pain threshold was measured 10, 20 and 30 minutes after an intravenous injection. In control group, 0.9% physiological saline solution was injected i.v. at the rate of 2 ml/kg at 30 minutes after s.c. administration at 10 ml/kg of 0.9% physiological saline solution. In the single administration group of levallorphan hydrochloride, levallorphan hydrochloride solution mentioned above was administered s.c. at the rate of 10 ml/kg and, 30 minutes later, 0.9% physiological saline solution was injected i.v. at the rate of 2 ml/kg. The results were described in Table 10 as an inhibition rate (%) indicating in the preceding paragraph (1).

yeast-induced fever = assay: Antipyretic activity on yeast-induced fever in rats; type: in vivo, rats (Wistar, male); conditions: rat, 2 hours after administration
Protocol: Measurement of Antipyretic Activity on Yeast-Induced Fever in Rats
Wistar Strain male rats (150-190 g) were fasted for one day before the experiment, and were used. Compounds of number (1) and (2) in Table 1 were formed to the tartaric acid salt and these salts were dissolved in 0.9% physiological saline solution at the rate of 10 mg/10 ml and these solution were used as test compound solution. In a control, 0.9% physiological saline solution was used. After rat rectal temperature was measured, 1 ml/100 g of body weight of 7.5% yeast/0.9% physiological saline solution was injected s.c. at dorsal position. Then, rat rectal temperature was measured at 4 hour after the injection of yeast and rats showing the increase rectal temperature by 1 degree or more were selected and used. Test compound solution was administered s.c. at 5 hours after the injection of yeast. The rectal temperature was measured 2 hours after the administration of test compound solution. The results were described with the difference between the rectal temperature before and after the administration of test compound solution.

[3] = test system: carrageenin-induced paw edema; assay: Antiinflammatory activity by the carrageenin-induced hind paw edema; type: in vivo, mice (Std:ddY, male); conditions: mouse, 30 mg/kg p.o., mean ± standard error, n = 6
Protocol: Measurement of Antiinflammatory Activity by the Carrageenin-Induced Hind Paw Edema
Std:ddY Strain male mice (20-25 g) were fasted for one day before the experiment, and were used. After test compounds shown in Table 1 was formed to a salt with tartaric acid, this salt was dissolved in sterilized and distilled water at the rate of 30 mg/10 ml to give the test compound solution. As a control, sterilized and distilled water was used. One hour after the oral administration of test compound solutions, 25 μl of λ-carrageenin suspended in 0.9% physiological saline solution (0.5 mg/25 μl) was injected s.c. under the plantar surface of the right hind paw of a mouse and 25 μl of 0.9% physiological saline solution was injected s.c. under the plantar surface of the left hind paw of the same mouse. Three hours and five hours after carrageenin injection, the […] of the paw was measured with a dial gauge calliper. To the control group, One hour after the oral administration of sterilized and distilled water at the rate of 10 ml/kg, 25 μl of λ-carrageenin (0.5 mg/25 μl) suspended in 0.9% physiological saline solution was injected s.c. under the plantar surface of the right hind paw of a mouse and 25 μl of 0.9% physiological saline solution was injected s.c. under the plantar surface of the left hind paw of the same mouse and the later operation was done in the same manner as in the test compound dosing group mentioned above. The results were described as a swelling rate (%) obtained from the following equation.
Swelling rate (%)=(R-L)×100/L
R: the thickness of the right hind paw
L: the thickness of the left hind paw

CCN1CC2(COC)C(O)CC(OC)C34C5CC6(O)C(OC)C(OC(C)=O)C(O)(C5C6OC(=O)c5ccc(Cl)cc5)C(C(OC)C23)C14 (stereo not drawn) [(2), 15-O-acetyl-14-O-p-chlorobenzoylaconine]
Inhibition rate ([1]; 1 mg/kg i.v., 10 minutes): 5 ± 4% | Inhibition rate ([1]; 1 mg/kg i.v., 20 minutes): 4 ± 4% | Inhibition rate ([1]; 1 mg/kg i.v., 30 minutes): 2 ± 3% | Inhibition rate ([1]; 3 mg/kg i.v., 10 minutes): 14 ± 15% | Inhibition rate ([1]; 3 mg/kg i.v., 20 minutes): 16 ± 10% | Inhibition rate ([1]; 3 mg/kg i.v., 30 minutes): 12 ± 12% | Inhibition rate ([1]; 5 mg/kg i.v., 10 minutes): 38 ± 13% | Inhibition rate ([1]; 5 mg/kg i.v., 20 minutes): 27 ± 6% | Inhibition rate ([1]; 5 mg/kg i.v., 30 minutes): 22 ± 7% | analgesic activity compared with morphine, in words ([1]; mouse, i.v.): had an equal analgesic activity in its strength to morphine | Inhibition rate ([2]; with levallorphan 1 mg/kg s.c. 30 minutes before, 10 min): 86 ± 25% | Inhibition rate ([2]; with levallorphan 1 mg/kg s.c. 30 minutes before, 20 min): 77 ± 14% | Inhibition rate ([2]; with levallorphan 1 mg/kg s.c. 30 minutes before, 30 min): 67 ± 22% | Inhibition rate ([2]; without levallorphan, 10 min): 85 ± 15% | Inhibition rate ([2]; without levallorphan, 20 min): 80 ± 20% | Inhibition rate ([2]; without levallorphan, 30 min): 65 ± 21% | Change of rectal temperature (yeast-induced fever; 1 mg/kg s.c.): 1.5 ± 0.2 °C | Change of rectal temperature (yeast-induced fever; 3 mg/kg s.c.): 0.5 ± 0.2 °C | Change of rectal temperature (yeast-induced fever; 10 mg/kg s.c.): 0.3 ± 0.1 °C | Swelling rate ([3]; 3 hour): 40 ± 9% | Swelling rate ([3]; 5 hour): 46 ± 9%
